Legend:
Assay type in all cases: cell-based
[1] = tested on: HCV genotype 1b replicon (Huh-Luc-Neo cells); experiment: HCV Replicon Luciferase Assay; details: Hepatitis C virus, Huh-Luc-Neo cells, genotype 1b, 72 h, read-out: HCV-1b Replicon Inhibition*, Luciferase (EC50)
[2] = tested on: HCV genotype 1b replicon (Huh-Luc-Neo cells); experiment: HCV Replicon RNA (Taqman) Assay, genotype 1b; details: Hepatitis C virus, Huh-Luc-Neo cells, genotype 1b, HCV RNA, 72 h, read-out: HCV-1b Replicon Inhibition*, Taqman (EC50)
[3] = Cell Titer-Glo Cell Viability Assay, genotype 1b cells; details: human, Huh-Luc-Neo (HCV genotype 1b replicon) cells, HCV genotype 1b assays, read-out: Cytotoxicity* (CC50)
Procedure: Cell Seeding and Compound Treatment: Huh-Luc-Neo (Genotype 1b) or En5-3/Htat2ANeo (Genotype 1a) cells are seeded at 5000-7000/well in an opaque-walled 96 plate with Growth Medium (DMEM phenol red free+PS+2 mM glutamine; 100 ul/well). The compounds to be tested for inhibition of cell viability are added to the experimental wells so as to generate a dose response curve (8-9 concentrations, 10 μl/well at 10× assay concentration) and the cells are then incubated (5% CO2, 37° C.) for 72 h.
Reagent Preparation and Assay: After completion of the incubation period the cell viability measurements are made using the Cell Titre Glo Assay (Promega) according to the manufacturer's recommended protocol. Briefly, the CellTiter-Glo Buffer is thawed and equilibrated to room temperature prior to use. The lyophilized CellTiter-Glo Substrate is also equilibrated to room temperature prior to use. 10 ml of CellTiter-Glo Buffer is then transferred to 1 vial of CellTiter-Glo Substrate and mixed gently with a Vortex. 100 μl of CellTiter-Glo Assay reagent (CellTiter-Glo Buffer+CellTiter-Glo Substrate Mixture) is added to each well. The well contents are mixed for 5 min. on an orbital shaker at room temperature to induce cell lysis and the luminescence is then measured using a luminometer.

## Cc1ccc(O)c(-c2nn(C)cc2C#Cc2ccc(NC(=O)C3CCCCN3C(=O)C(NC(=O)OC(C)(C)C)c3ccccc3)cc2)c1 (stereo not drawn) [Compound 1]
[1]
  EC50: 1 to 10 µM
[2]
  EC50: < 1 µM
[3]
  CC50 at 72 h: > 100 µM

## Cc1ccc(O)c(-c2nn(C)cc2C#Cc2ccc(NC(=O)[C@H]3CCCCN3C(=O)[C@H](Cc3ccccc3)NC(=O)OC(C)(C)C)cc2)c1 [Compound 2]
[1]
  EC50: < 1 µM
[2]
  EC50: < 1 µM
[3]
  CC50 at 72 h: > 100 µM

## Cc1ccc(O)c(-c2nn(C)cc2C#Cc2ccc(NC(=O)C3CCCCN3C(=O)[C@H](Cc3cccnc3)NC(=O)OC(C)(C)C)cc2)c1 (stereo partly drawn) [Compound 3]
[1]
  EC50: < 1 µM
[2]
  EC50: < 1 µM
[3]
  CC50 at 72 h: > 100 µM

## COc1ccc(C[C@H](NC(=O)OC(C)(C)C)C(=O)N2CCCCC2C(=O)Nc2ccc(C#Cc3cn(C)nc3-c3cc(C)ccc3O)cc2)cc1 (stereo partly drawn) [Compound 4]
[1]
  EC50: < 1 µM
[2]
  EC50: < 1 µM
[3]
  CC50 at 72 h: < 1 µM

## Cc1ccc(O)c(-c2nn(C)cc2C#Cc2ccc(NC(=O)C3CCCCN3C(=O)[C@H](Cc3ccc(F)cc3)NC(=O)OC(C)(C)C)cc2)c1 (stereo partly drawn) [Compound 5]
[1]
  EC50: < 1 µM
[2]
  EC50: < 1 µM
[3]
  CC50 at 72 h: > 100 µM

## Cc1ccc(O)c(-c2nn(C)cc2C#Cc2ccc(NC(=O)C3CCCCN3C(=O)[C@H](Cc3ccc(Cl)cc3Cl)NC(=O)OC(C)(C)C)cc2)c1 (stereo partly drawn) [Compound 6]
[1]
  EC50: < 1 µM
[2]
  EC50: < 1 µM
[3]
  CC50 at 72 h: > 100 µM

## Cc1ccc(O)c(-c2nn(C)cc2C#Cc2ccc(NC(=O)C3CCCCN3C(=O)[C@H](CCc3ccccc3)NC(=O)OC(C)(C)C)cc2)c1 (stereo partly drawn) [Compound 7A]
[1]; GETYPE1B
  EC50: < 1 µM
[2]; GETYPE1B
  EC50: < 1 µM
[3]
  CC50 at 72 h: 10 to 100 µM

## Cc1ccc(O)c(-c2nn(C)cc2C#Cc2ccc(NC(=O)C3CCCCN3C(=O)[C@H](Cc3ccccc3)NC(=O)CC3CCCC3)cc2)c1 (stereo partly drawn) [Compound 7]
[1]
  EC50: < 1 µM
[2]
  EC50: < 1 µM
[3]
  CC50 at 72 h: > 100 µM

## Cc1ccc(O)c(-c2nn(C)cc2C#Cc2ccc(NC(=O)C3CCCCN3C(=O)[C@H](Cc3ccccc3)NC(=O)CC(C)(C)C)cc2)c1 (stereo partly drawn) [Compound 8]
[1]
  EC50: < 1 µM
[2]
  EC50: < 1 µM
[3]
  CC50 at 72 h: 10 to 100 µM

## Cc1ccc(O)c(-c2nn(C)cc2C#Cc2ccc(NC(=O)C3CCCCN3C(=O)[C@H](Cc3ccccc3)NC(=O)CC3CCCCC3)cc2)c1 (stereo partly drawn) [Compound 9]
[1]
  EC50: < 1 µM
[2]
  EC50: < 1 µM
[3]
  CC50 at 72 h: 10 to 100 µM

## Cc1ccc(O)c(-c2nn(C)cc2C#Cc2ccc(NC(=O)C3CCCCN3C(=O)[C@H](Cc3ccccc3)NC(=O)C3CCCCC3)cc2)c1 (stereo partly drawn) [Compound 10]
[1]
  EC50: < 1 µM
[2]
  EC50: < 1 µM
[3]
  CC50 at 72 h: 10 to 100 µM

## Cc1ccc(OS(=O)(=O)C(F)(F)F)c(-c2nn(C)cc2C#Cc2ccc(NC(=O)C3CCCCN3C(=O)[C@H](Cc3ccccc3)NC(=O)OC(C)(C)C)cc2)c1 (stereo partly drawn) [Compound 11]
[1]
  EC50: < 1 µM
[2]
  EC50: < 1 µM
[3]
  CC50 at 72 h: > 100 µM

## Cc1ccc(O)c(-c2nn(C)cc2C#Cc2ccc(NC(=O)C3CCCCN3C(=O)[C@H](Cc3ccco3)NC(=O)OC(C)(C)C)cc2)c1 (stereo partly drawn) [Compound 12A]
[1]; GETYPE1B
  EC50: < 1 µM
[2]; GETYPE1B
  EC50: < 1 µM
[3]
  CC50 at 72 h: 10 to 100 µM

## Cc1ccc(O)c(-c2nn(C)cc2C#Cc2ccc(NC(=O)C3CCCCN3S(=O)(=O)c3cccs3)cc2)c1 (stereo not drawn) [Compound 12]
[1]
  EC50: < 1 µM
[2]
  EC50: < 1 µM
[3]
  CC50 at 72 h: > 100 µM

## Cc1ccc(O)c(-c2nn(C)cc2C#Cc2ccc(NC(=O)C3CCCCN3C(=O)[C@@H](NC(=O)OC(C)(C)C)C3CCCCC3)cc2)c1 (stereo partly drawn) [Compound 13]
[1]
  EC50: 1 to 10 µM
[2]
  EC50: < 1 µM
[3]
  CC50 at 72 h: > 100 µM

## Cc1ccc(O)c(-c2nn(C)cc2C#Cc2ccc(NC(=O)C3CCCCN3C(=O)[C@H](Cc3ccccc3)NC(=O)OC(C)(C)C)cc2)c1 (stereo partly drawn) [Compound 14]
[1]
  EC50: < 1 µM
[2]
  EC50: < 1 µM
[3]
  CC50 at 72 h: > 100 µM

## Cc1ccc(O)c(-c2nn(C)cc2C#Cc2ccc(NC(=O)[C@@H]3CCCCN3C(=O)[C@@H](Cc3ccccc3)NC(=O)OC(C)(C)C)cc2)c1 [Compound 15]
[1]
  EC50: < 1 µM
[2]
  EC50: < 1 µM
[3]
  CC50 at 72 h: > 100 µM

From patent US7923004B2 (priority 2006, dated 2011)
